Measurements: US20220185832A1, “CD73 INHIBITORS” (BioArdis LLC, priority 2019, published 2022)

What was measured:
[1] = biological target: T1, Cell surface CD73 of U87 MG human glioblastoma cells (Homo sapiens, UniProt P21589); test: CD73 Cellular Assay; type: cell-based; conditions: 5000 cells per well, 30 μM AMP, PiColorLock phosphate detection in supernatant, read-out: Potency (IC50)
T1 construct: Cell surface CD73 catalyzes the conversion of adenosine monophosphate (AMP) to adenosine and inorganic phosphate; endogenous in cells; host or cells: U87 MG human glioblastoma cells
T1 sequence (P21589 27-549): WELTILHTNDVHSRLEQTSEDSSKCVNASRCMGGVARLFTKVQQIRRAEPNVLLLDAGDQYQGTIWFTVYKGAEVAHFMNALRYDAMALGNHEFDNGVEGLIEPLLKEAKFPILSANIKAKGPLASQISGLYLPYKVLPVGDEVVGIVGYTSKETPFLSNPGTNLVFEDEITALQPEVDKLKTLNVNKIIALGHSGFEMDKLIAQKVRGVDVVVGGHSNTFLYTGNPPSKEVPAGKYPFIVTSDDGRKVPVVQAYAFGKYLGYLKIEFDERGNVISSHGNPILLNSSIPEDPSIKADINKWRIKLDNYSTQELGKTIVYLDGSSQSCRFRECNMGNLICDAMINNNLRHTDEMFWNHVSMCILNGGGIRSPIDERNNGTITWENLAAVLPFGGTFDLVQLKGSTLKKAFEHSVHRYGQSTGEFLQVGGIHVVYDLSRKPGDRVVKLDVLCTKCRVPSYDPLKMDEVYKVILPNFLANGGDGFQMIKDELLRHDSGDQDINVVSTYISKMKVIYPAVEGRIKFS
Protocol: Cell surface CD73 catalyzes the conversion of adenosine monophosphate (AMP) to adenosine and inorganic phosphate. U87 MG human glioblastoma cells express high level of CD73. Cells are treated with compounds in a 96-well assay plate and supernatants are collected into a 384-well detection plate. The concentration of inorganic phosphate (Pi) in the supernatants is determined using the phosphate detection reagent, PiColorLock™ (Innova Bioscience, Cat #303-0125) following the manufacturer's instructions.
Briefly, on the day of the assay, U87 MG cells were harvested and resuspended in assay buffer which consisted of 20 mM HEPES, pH=7.4, 137 mM NaCl, 5.4 mM KCl, 1.3 mM CaCl2, 4.2 mM NaHCO3 and 0.1% glucose. To test the effect of compounds on cellular CD73 enzymatic activity, 500 nL/well of compounds dissolved in DMSO were added to a 96-well TC-treated microplate (Corning #3599). Next, 80 μL/well of U87 MG cells in assay buffer were added to assay plate. After 30 minutes of incubation in an atmosphere of 5% CO2 at 37° C., 20 μL/well of 150 μM AMP (Adenosine 5′-monophosphate monohydrate, Sigma, Cat #01930) in assay buffer was added to assay plate. Final assay conditions consisted of 5000 cells per well in 0.5% DMSO and 30 μM AMP substrate. After 50 minutes of incubation in an atmosphere of 5% CO2 at 37° C., 50 μL/well of supernatant was transferred to the 384-well detection plate (Corning® NBSTM 384 well plates, Cat #3640). Meanwhile “Gold mix” was prepared shortly before use by adding 1/100 volume of accelerator to the PiColorLock™ Gold reagent. 12 μL/well of the “Gold mix” was added to detection plate containing 50 μL/well of supernatant and incubated at 25° C. for 5 minutes. 5 μL/well stabilizer was added to the detection plate and incubated at 25° C. for 30 minutes. The absorbance at 635 nm was measured on a Spark 10M instrument (TECAN).
(§1) The percent (%) inhibition at each concentration of a compound was calculated relative to the OD value in the Max and Min control wells contained within each assay plate. The Max control wells contained cells and substrate as 0% inhibition, and the Min control wells only contained cells as 100% inhibition. The concentrations and percent inhibition values for a test compound are plotted and the concentration of the compound required to achieve 50% inhibition (IC50) was determined with a four-parameter logistic dose response equation.

[2] = biological target: T2, Recombinant Human 5′-Nucleotidase (CD73) (Homo sapiens, UniProt P21589); test: CD73 Enzyme Assay; type: biochemical; conditions: 0.5 nM human CD73, 30 μM AMP, PiColorLock phosphate detection, OD 635 nm; read-out: Potency (IC50)
T2 construct: CHO derived CD73 (Trp27-Lys547), with a C-terminal 6-His tag; 6-His (C); purchased R&D 5795-EN; host or cells: CHO
T2 sequence (P21589 27-547): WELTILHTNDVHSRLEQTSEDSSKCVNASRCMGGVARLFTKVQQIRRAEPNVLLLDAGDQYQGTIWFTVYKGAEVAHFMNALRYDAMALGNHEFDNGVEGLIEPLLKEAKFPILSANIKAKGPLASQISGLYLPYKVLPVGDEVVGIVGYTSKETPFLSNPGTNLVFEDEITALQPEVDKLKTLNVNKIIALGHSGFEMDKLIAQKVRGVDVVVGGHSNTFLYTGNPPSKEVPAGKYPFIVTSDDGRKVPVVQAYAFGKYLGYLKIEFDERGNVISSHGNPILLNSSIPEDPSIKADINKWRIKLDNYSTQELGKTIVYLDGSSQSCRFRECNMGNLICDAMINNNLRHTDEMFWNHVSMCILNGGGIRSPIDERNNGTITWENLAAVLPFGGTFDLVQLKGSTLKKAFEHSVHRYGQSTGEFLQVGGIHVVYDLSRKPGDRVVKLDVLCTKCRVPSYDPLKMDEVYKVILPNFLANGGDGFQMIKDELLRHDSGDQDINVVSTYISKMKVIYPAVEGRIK
Text: Soluble recombinant CD73 catalyzes the conversion of adenosine monophosphate (AMP) to adenosine and inorganic phosphate. The phosphate detection reagent, PiColorLock™ (Innova Bioscience, Cat #303-0125) is based on the change in absorbance of the dye malachite green in the presence of inorganic phosphate (Pi) and this property can be exploited to measure any enzyme that generates Pi. Recombinant Human 5′-Nucleotidase (CD73) (R&D #5795-EN, CHO derived CD73 (Trp27-Lys547), with a C-terminal 6-His tag) was used in the enzymatic assay. This assay was run in a 384-well plate format (Corning® NBS™ 384 well plates, Cat #3640). The basic assay procedure involves two steps: 1) Enzyme reaction: The CD73 enzyme (R&D #5795-EN) is incubated in the presence or absence of compounds. AMP (sigma, cat #01930) is added to start the kinase reaction. 2) Detection step: “Gold mix” is added to the assay system, then stabilizers are added. After incubation the absorbance of the solution is read at OD 635 nm. The recorded OD signal is proportional to the enzyme activity.
Briefly, 25 μl human CD73 (0.5 nM final concentration) in the enzymatic buffer solutions (20 mM Tris, 25 mM NaCl, 1 mM MgCl2, pH 7.5, 0.005% Tween-20) were mixed with various concentrations of the test compound (dissolved in 100% DMSO). These solutions were incubated for 15 min at 25° C., and subsequently 25 μl AMP (30 μM final concentration) was added to start the reaction. The final reaction mixture of enzyme-substrate-compound was incubated for 20 min at 37° C. Meanwhile, “Gold mix” was prepared shortly before use by adding 1/100 vol. of accelerator to the PiColorLock™ Gold reagent. 12 μL/well of the “Gold mix” was added to assay plate containing 50 μL enzyme reaction buffer and incubated at 25° C. for 5 min. 5 μL/well stabilizer was added to the assay plate and incubated at 25° C. for 30 min. The absorbance of the well solutions was measured at 635 nm on a Spark 10M instrument (TECAN).
as §1, with “wells contained enzyme and substrate” for “wells contained cells and substrate”, “only contained substrate without enzyme as 100%” for “only contained cells as 100%”

IC50 [1] [nM]	IC50 [2] [nM]	Structure (SMILES)
< 10	10 to 99	O=P(O)(O)CP(=O)(O)OC[C@H]1O[C@@H](c2ccc3c(NCC4CCCC4)nc(Cl)nc3c2)[C@H](O)[C@@H]1O [Compound 5, (((((2R,3S,4R,5S)-5-(2-chloro-4-((cyclopentylmethyl)amino)quinazolin-7-yl)-3,4-dihydroxytetrahydrofuran-2-yl)methoxy)(hydroxy)phosphoryl)methyl)phosphonic acid]
< 10	10 to 99	O=P(O)(O)CP(=O)(O)OC[C@H]1O[C@@H](c2ccc3c(NCC4CCCO4)nc(Cl)nc3c2)[C@H](O)[C@@H]1O (stereo partly drawn) [Compound 6, (((((2R,3S,4R,5S)-5-(2-chloro-4-(((tetrahydrofuran-2-yl)methyl)amino)quinazolin-7-yl)-3,4-dihydroxytetrahydrofuran-2-yl)methoxy)(hydroxy)phosphoryl)methyl)phosphonic acid]
< 10	10 to 99	O=P(O)(O)CP(=O)(O)OC[C@H]1O[C@@H](c2ccc3c(NC4CCC4)nc(Cl)nc3c2)[C@H](O)[C@@H]1O [Compound 7, (((((2R,3S,4R,5S)-5-(2-chloro-4-(cyclobutylamino)quinazolin-7-yl)-3,4-dihydroxytetrahydrofuran-2-yl)methoxy)(hydroxy)phosphoryl)methyl)phosphonic acid]
< 10	< 10	O=P(O)(O)CP(=O)(O)OC[C@H]1O[C@@H](c2ccc3c(NCC4CCC4)nc(Cl)nc3c2)[C@H](O)[C@@H]1O [Compound 8, (((((2R,3S,4R,5S)-5-(2-chloro-4-((cyclobutylmethyl)amino)quinazolin-7-yl)-3,4-dihydroxytetrahydrofuran-2-yl)methoxy)(hydroxy)phosphoryl)methyl)phosphonic acid]
< 10	10 to 99	O=P(O)(O)CP(=O)(O)OC[C@H]1O[C@@H](c2ccc3c(NCC4CC4)nc(Cl)nc3c2)[C@H](O)[C@@H]1O [Compound 9, (((((2R,3S,4R,5S)-5-(2-chloro-4-((cyclopropylmethyl)amino)quinazolin-7-yl)-3,4-dihydroxytetrahydrofuran-2-yl)methoxy)(hydroxy)phosphoryl)methyl)phosphonic acid]
< 10	10 to 99	CN(c1ncnc2cc([C@@H]3O[C@H](COP(=O)(O)CP(=O)(O)O)[C@@H](O)[C@H]3O)ccc12)C1CCCC1 [Compound 10, (((((2R,3S,4R,5S)-5-(4-(cyclopentyl(methyl)amino)quinazolin-7-yl)-3,4-dihydroxytetrahydrofuran-2-yl)methoxy)(hydroxy)phosphoryl)methyl)phosphonic acid]
< 10	10 to 99	O=P(O)(O)CP(=O)(O)OC[C@H]1O[C@@H](c2ccc3c(NCc4ccccc4)ncnc3c2)[C@H](O)[C@@H]1O [Compound 12, [({[(2R,3S,4R,5S)-5-[4-(benzylamino)quinazolin-7-yl]-3,4-dihydroxyoxolan-2-yl]methoxy}(hydroxy)phosphoryl)methyl]phosphonic acid]
10 to 99	100 to 999	O=P(O)(O)CP(=O)(O)OC[C@H]1O[C@@H](c2ccc3c(NCc4ccccc4)nc(Cl)nc3c2)[C@@H](F)[C@@H]1O [Compound 13, (((((2R,3R,4S,5S)-5-(4-(benzylamino)-2-chloroquinazolin-7-yl)-4-fluoro-3-hydroxytetrahydrofuran-2-yl)methoxy)(hydroxy)phosphoryl)methyl)phosphonic acid]
< 10	10 to 99	Cc1nc(NCc2ccccc2)c2ccc([C@@H]3O[C@H](COP(=O)(O)CP(=O)(O)O)[C@@H](O)[C@H]3O)cc2n1 [Compound 17, (((((2R,3S,4R,5S)-5-(4-(benzylamino)-2-methylquinazolin-7-yl)-3,4-dihydroxytetrahydrofuran-2-yl)methoxy)(hydroxy)phosphoryl)methyl)phosphonic acid]
< 10	10 to 99	C=Cc1nc(NCc2ccccc2)c2ccc([C@@H]3O[C@H](COP(=O)(O)CP(=O)(O)O)[C@@H](O)[C@H]3O)cc2n1 [Compound 18, [({[(2R,3S,4R,5S)-5-[4-(benzylamino)-2-ethenylquinazolin-7-yl]-3,4-dihydroxyoxolan-2-yl]methoxy}(hydroxy)phosphoryl)methyl]phosphonic acid]
< 10	< 10	O=P(O)(O)CP(=O)(O)OC[C@H]1O[C@@H](c2ccc3c(NC4CCOC4)nc(Cl)nc3c2)[C@H](O)[C@@H]1O (stereo partly drawn) [Compound 22, (((((2R,3S,4R,5S)-5-(2-chloro-4-((tetrahydrofuran-3-yl)amino)quinazolin-7-yl)-3,4-dihydroxytetrahydrofuran-2-yl)methoxy)(hydroxy)phosphoryl)methyl)phosphonic acid]
